Values quoted from earlier work as cited in patent EP1223952B1, “METHODS FOR TREATMENT OF SOLID TUMORS AND METASTASIS BY GENE THERAPY” (Aguilar-Cordova, Carlos, Estuardo, priority 1999, dated 2001).

Assays:
[1] = in combination with an LHRH agonist
[2] = in vivo
[3] = oral, at all doses

## CC(C)C(=O)Nc1ccc([N+](=O)[O-])c(C(F)(F)F)c1 [Eulexin, flutamide]
[1]
  diarrhea: 12%
  gynecomastia: 9%
  hot flashes: 61%
  impotence: 33%
  loss of libido: 36%
  nausea/vomiting: 11%
  other: 7%
  other GI: 6%

## leuprolide acetate [Lupron Depot]
[2]
  Elevation of LDH (> 2 x normal): 19.6%

## CC(C)[C@H](N)C(=O)OCCOCn1cnc2c(=O)[nH]c(N)nc21 [valacyclovir, Valacyclovir]
In vivo
  arthralgia: 1-6%
  depression: 1-7%
  dizziness or abdominal pain: 2-11%
  headache: 14-35%
  nausea: 6-15 % of patients
  vomiting: 1-6%
Laboratory abnormalities
  abnormal liver function tests: 1-4 % of patients
  anemia, leukopenia, thrombocytopenia and elevated serum creatinine: ≤ 1 % of patients
[3]
  Peak plasma valacyclovir concentrations: less than 0.5 mcg/ml
